Results reported in EP0378285A1, “Substituted alkenes, processes for their preparation and their use as pesticides” (priority 1989, dated 1990).

Legend:
Type in all cases: in vivo
[1] = system: house fly (Musca domestica); assay: Use Example J: activity against house fly; conditions: adult houseflies on treated filter papers; 22 C for 24 hours
Procedure: Activity against house fly (Musca domestica)
Aliquots (0.7 ml) of acetone solutions or suspensions of test compounds at various concentrations were applied to filter papers (9 cm diameter) placed in the bottom of petri dishes (9 cm diameter) closed by glass lids. After evaporation of solvent, the treated surfaces, together with controls treated with acetone alone, were then infested with adult houseflies, (Musca domestica) and held at 22 C for 24 hours. The percentage mortality of the insects was then recorded.

[2] = system: brown rice-hoppers (Niliparvata lugens Stal); assay: Use Example B: activity in prophylactic treatment of leaves against brown rice-hoppers; conditions: 48 h, read-out: activity
Description: Activity in prophylactic treatment of leaves against brown rice-hoppers (Niliparvata lugens Stal)
Rice seedlings (Oryzae sativa L.) in the two leaf stage (about 10 per polystyrene pot of size 6.5 x 6.5 cm) were either untreated or […] until dripping wet, with an aqueous preparation containing 0.1 % of active material. After drying the sprayed leaves, a transparent cylinder was placed over each pot and through an opening, about 30 brown rice-hoppers (Niliparvata lugens) in the 4-5 stage, anaesthetised with carbon dioxide, were introduced into each pot. After closing the opening with a fine mesh screen, the pots were kept for 2 days at 28° C and 16 hours/day of light in the glasshouse, the amount of dead hoppers was determined. The percentage mortality was then estimated and the activity calculated using Abbott's method in comparison with the untreated controls.

[3] = system: Sheep blowfly (Lucilia sericata); assay: whole plant or invertebrate; conditions: 24 h, read-out: LCso
Procedure: Activity against Sheep blowfly (Lucilia sericata)
1 ml aliquots of acetone solutions or suspensions, containing test compound at various concentrations, were applied to cotton wool dental rolls (1 cm x 2 cm), contained in glass vials 2 cm diameter x 5 cm long. After drying, the treated materials were then impregnated with 1 ml of nutrient solution, infested with approximately 30 first instar larvae of sheep blow fly (Lucilia sericata), closed by a cotton wool plug and held at 25 C for 24 hours.

Boophilus microplus = assay: whole plant or invertebrate; conditions: Rhipicephalus microplus, 48 h, read-out: concentration causing 50% mortality
Procedure: Tickicidal activity against Boophilus microplus
9 cm diameter filter papers were impregnated with 1 ml aliquots of acetone solutions of test compound at various concentrations. The papers were allowed to dry and then folded into envelopes in which cattle tick larvae, (Boophilus microplus) were enclosed and held at 25°C and 80% R.H. for 48 hours. The percentage mortality of tick larvae was then recorded and compared with controls.

[4] = system: corn rootworm (Diabrotica undecimpunctata); assay: Use Example E: soil insecticide activity against eggs/larvae of the corn rootworm; conditions: aqueous preparation 0.0025%, 5 ml into 50 cm^3 earth, 10 days at 25 C
Procedure: Soil insecticide activity against eggs/larvae of the corn rootworm (Diabrotica undecimpunctata)
5 ml of these preparations were pipetted into 300 ml clear plastic beakers, containing 50 cm^3 earth and ca. 50 Diabrotica eggs, as well as 2 presoaked maize seeds. The sealed pots were left for 10 days under extended daylight conditions at 25 C. The criterion for judging the activity after 10 days was the larvicidal activity and the root growth of the emerging maize plants in the treated pots in comparison with untreated controls.

Aphis fabae = assay: Activity in prophylactic treatment of leaf discs against Aphis fabae; conditions: Aphis fabae, foliar, 48 h; 0.1% aqueous preparation; field bean leaf discs infested with wingless stages; 2 days at 25 C; percentage mortality, Abbott's method
Procedure: From the primary leaf of field beans (Phaseolus vulgaris nanus Aschers.), 24 mm diameter discs were cut. Some of these were treated with a 0.1% aqueous preparations of compounds of the invention and these along side untreated discs were placed on filter papers with the underside of the leaves turned upwards. After drying the test pieces, they were each infested with wingless stages of Aphis fabae (approx 100 per leaf piece). The experiment was replicated 3 times. The leaves were kept on wet filter papers for 2 days at 25 C and 16 hours light per day. The percentage mortality was then estimated and the activity calculated using Abbott's method in comparison with the untreated controls.

[5] = system: cotton bollworm (Heliothis viriscens); assay: Use Example H: ovicidal activity against eggs of the cotton bollworm; conditions: aqueous preparation 0.1 %; one day old eggs dipped; four days; % inhibition of hatching of the eggs
Description: Ovicidal activity against eggs of the cotton bollworm (Heliothis viriscens)
(§1) The compounds of the invention were made up as aqueous preparations at a concentration of 0.1 %. One day old eggs that had been laid on filter paper by fertilised female moths were dipped in the preparations until they were completely wet and then placed in closed petri dishes under extended daylight conditions for four days. The % inhibition of hatching of the eggs in comparison with untreated eggs indicates the level of activity.

[6] = system: corn rootworm (Diabrotica undecimpunctata); assay: Use Example D: activity against eggs/larvae of the corn rootworm; conditions: Diabrotica undecimpunctata, 168 h; aqueous emulsion 0.1%, 0.2 ml pipetted into soil; 7 days at 25 C; death of eggs or newly hatched larvae
Procedure: Activity against eggs/larvae of the corn rootworm (Diabrotica undecimpunctata)
The compounds of the invention were made up as aqueous emulsions at a concentration of 0.1%. Into the soil in polystyrene petri dishes, containing maize seedlings (1 seedling/dish) and ca. 50 eggs of the corn rootworm (Diabrotica undecimpunctata) were pipetted 0.2 ml of these preparations. The closed dishes were left at 25 C under extended daylight conditions for 7 days. The criterion for judging the activity was the death of eggs or newly hatched larvae at the end of the test.

[7] = system: two spotted mite (Tetranychus urticae Koch); assay: Use Example C: activity in the prophylactic treatment of feed against the two spotted mite; conditions: foliar, 0.1 % aqueous preparation, field bean leaf discs, adults and eggs counted after 3 days at 25 C, larvae after a further 7 days, Abbott's method
Procedure: Activity in the prophylactic treatment of feed against the two spotted mite (Tetranychus urticae Koch)
From the primary leaf of field beans (Phaseolus vulgaris nanus Aschers.) 14 mm diameter discs were cut. Some of these were treated with a 0.1 % aqueous preparations of compounds of the invention and these along side untreated discs were placed on filter papers with the underside of the leaves turned upwards. After drying the test pieces, they were each infested with six adult female Tetranychus urticae and maintained for 3 days at 25 C and 16 hours light per day. The experiment was replicated 4 times. Dead and alive adults were then counted and removed. Similarly the number of eggs laid were counted. After a further 7 days, the number of living larvae were counted, the activity calculated using Abbott's method in comparison with the untreated controls.

[8] = system: cotton bollworm (Heliothis viriscens); assay: whole plant or invertebrate; conditions: 48 h, read-out: activity
Procedure: Activity against larvae (L1) of the cotton bollworm (Heliothis viriscens)
Compounds of the invention were made up as aqueous preparations at a concentration of 0.1 %. Into these, feed material was dipped for 2 seconds. After drying the feed material was put into into polystyrene petri dishes. After an hour, 10 L1 of the cotton bollworm (Heliothis viriscens) were counted into the dishes. The closed dishes were left for up to 7 days at 25 °C under extended daylight conditions. The % mortality of the larvae after two days indicated the level of activity.

[9] = system: cotton army worm (Spodoptera littoralis); assay: Use Example F: ovicidal activity against eggs of the cotton army worm; conditions: aqueous preparation 0.1 %; one day old eggs dipped; four days; % inhibition of hatching of the eggs
Description: Ovicidal activity against eggs of the cotton army worm (Spodoptera littoralis).
as §1, with “dishes in the laboratory” for “dishes”

| Structure (SMILES) | LDso [1] | mortality at 0.1 % [2] [%] | LC50 [3] [µg/mL] | LC50 (Boophilus microplus) [µg/mL] | mortality at 0.0025 % ([4]; Diabrotica undecimpunctata, soil, 240 h, read-out: larvicidal activity) [%] | root growth of the emerging maize plants ([4]; in comparison with untreated controls) | mortality at 0.1 % (Aphis fabae) [%] | activity [5] | mortality at 0.1 % [6] [%] | mortality at 0.1 % [7] [%] | mortality at 0.1 % [8] [%] | activity [9] |
| --- | --- | --- | --- | --- | --- | --- | --- | --- | --- | --- | --- | --- |
| C=C(C)C(C)(C)COCc1cccc(Oc2ccccc2)c1 [Example 16, 4-(3-phenoxybenzyloxy)-2,3,3-trimethyl-1-butene] | less than 1000 mg/m^2 | ≥ 80 | < 300 | ≤ 100 | 90 to 100 | good root growth |  |  |  |  |  |  |
| C=C(C)C(C)(C)COCc1ccc(F)c(Nc2ccccc2)c1 [Example 20, 4-(3-anilino-4-fluorobenzyloxy)-2,3,3-trimethyl-1-butene] |  | ≥ 80 |  |  |  |  | ≥ 80 | 80 - 100% | 80 to 100 | 80 to 100 | 80 to 100 |  |
| C=C(C)C(C)(C)COCc1ccc(F)c(Oc2ccccc2)c1 [Example 5, 4-(4-fluoro-3-phenoxybenzyloxy)-2,3,3-trimethyl-1-butene] | less than 1000 mg/m^2 |  | < 300 | ≤ 100 |  |  | ≥ 80 |  | 80 to 100 | 80 to 100 | 80 to 100 | 80 - 100% |
| C=C(C)C(C)(C)CCCc1ccc(F)c(Oc2ccccc2)c1 [Example 4, 6-(4-fluoro-3-phenoxyphenyl)-2,3,3-trimethyl-1-hexene] |  | ≥ 80 |  |  |  |  | ≥ 80 |  | 80 to 100 | 80 to 100 | 80 to 100 | 80 - 100% |
| C=C(Br)C(C)(C)COCc1ccc(F)c(Oc2ccccc2)c1 [Example 59, 2-bromo-3,3-dimethyl-4-(4-fluoro-3-phenoxybenzyloxy)-1-butene] |  | ≥ 80 |  |  |  |  | ≥ 80 |  | 80 to 100 | 80 to 100 | 80 to 100 |  |
| CC(C)(COCc1ccc(F)c(Oc2ccccc2)c1)C1=CCCC1 [Example 10, 2-(cyclopenten-1-yl)-1-(4-fluoro-3-phenoxybenzyloxy)-2-methylpropane] |  |  |  |  |  |  | ≥ 80 |  |  | 80 to 100 | 80 to 100 |  |
